Assay results taken from patent publication US20250262139A1, “POLYPEPTIDES AND METHODS FOR IMPROVING SKIN CONDITIONS” (INTERK PEPTIDE THERAPEUTICS LIMITED, priority 2020, published 2025).
Where no end group is shown, it is not given here.

Columns and labels:
Skh: hr1 hairless mice = assay: CPD (thymine dimer) immunohistochemistry in UV-irradiated mouse skin; assay type: in vivo; conditions: topical immediately after UVR; IK34720 20, 100 or 200 μg, Calcitriol 11.4 pmol/cm2; 3 hours post-UVR; vs vehicle
Experimental: Female Skh: hr1 hairless mice were exposed to solar simulated UV-irradiation as described above at Example 4. Immediately after irradiation mice were treated topically on the dorsal surface also as described in Example 4. Subsequently, skin was fixed at 3 hours post-UVR, and subjected to immuno-histochemical staining using the antibody directed against thymine dimers (CPD) described above at 10 μg/ml. […] In FIG. 9, dark staining in nuclei indicates the presence of thymine dimers (CPD), and the % area stained is presented. Immunohistology was quantified as per Example 4.

MMP1 = MMP1 immunohistochemical staining in UV-irradiated human skin explants; assay type: cell-based
Experimental: Human skin (2×human explant tissues) removed at elective surgery was cleaned, dissected and cut into pieces of approx. 5 mm×5 mm. Each piece was placed in a well of a 96 well plate, with individual plates prepared to assess the effects 3 hrs post treatment. Skin was subjected to UV-radiation from solar-simulated UV source for 1.5 h (UVR), or non-irradiation (SHAM), and treated immediately after with a vehicle control, Calcitriol (1 nM) or the polypeptide IK34720 (SEQ ID NO: 3) at concentrations of 50 μM, 250 μM or 500 μM. In FIG. 17, IK50, IK250 and IK500 as μM concentrations refers to 15 μg, 75 μg and 150 μg of IK34720 per 120 μL culture medium/explant, respectively.
Samples harvested at 3 hrs were fixed, sectioned, immunohistochemically stained for MMP1 and quantified for MMP1 expression, by expressing epidermal area stained for MMP1 as a function of total epidermal area examined.

dermal fibroblasts = assay: TBARS lipid peroxidation assay, UV-irradiated dermal fibroblasts; assay type: cell-based; conditions: IK-3 at the highest concentration (5 μM); 1,25D
Experimental: The ability of the polypeptide RSKAKNPLYRRRRRRRRR to alter UV-induced oxidative damage of cell-derived lipids was examined using the TBARS thiobarbituric acid-reactive substances (TBARS) lipid peroxidation assay.
After irradiation or sham-irradiation of dermal fibroblasts, supernatants (900 μL) were collected. In brief, 90 μL of butylated hydroxytoluene (2% w/w in ethanol) was added and samples kept frozen (−20° C.) until the TBARS assay. Petri dishes were washed twice with 1 mL of HBSS, cells scraped in 600 μL of water and 60 μL of 0.5% aqueous Triton X100 added to this solution, for protein determination carried out by the Lowry method (Lowry O H et al, J. Biol. Chem., 1951, 193:265-275). TBARS were fluorometrically assayed as described (Morlière P et al, Biochim. Biophys. Acta, 1991, 1084:261-268). Briefly, thawing samples were heated in the presence of thiobarbituric acid in acidic conditions, and TBARS extracted with 1-butanol and fluorometrically quantified (λexc=515 nm and Aem=550 nm). Tetraethoxypropane, which quantitatively yields the malondialdehyde-thiobarbituric acid adduct in the assay conditions, was used for calibration. TBARS values, expressed in malondialdehyde (MDA) equivalents, were normalized to the cell protein for each Petri dish. Each TBARS determination was performed in triplicate (e.g., with three Petri dishes per data point).

[1] = tested on: human primary melanocytes; assay: melanin content after UVB, primary melanocytes; assay type: cell-based; conditions: 10 μM for 24 hours prior to 2 kJ/m2 UVB; measured 24 hours later; relative to untreated UVB cells
Experimental: In brief, MM1418-C1 lightly pigmented melanoma cells or human primary melanocytes were grown in 24 well culture plates and treated with 10 μM
RSKAKNPLYRRRRRRRRR (“IK-3”) for 24 hours prior to being exposed to 2 kJ/m2 UVB radiation. Controls (not treated with RSKAKNPLYRRRRRRRRR) labelled “Con” and “UVB”, respectively, were exposed to either 0 or 2 KJ/m2 UVB radiation. Cell groups were returned to the incubator for 24 hours and then the levels of melanin and protein in the cells were measured spectrophotometrically. In each experiment triplicate samples were measured. Data shown in FIG. 19 indicate the average values+SEM (μg melanin/mg cell protein) exposed to 0 or 2 KJ/m2 UVB which had been pre-treated with 0 or 10 μM of RSKAKNPLYRRRRRRRRR 24 hours prior to being exposed to UVB radiation. The t-test (2-tailed) was used to determine statistical significance, *p<0.05, ***p<0.001.

RSKAKNPLYRRRRRRRRR (not fully specified (some residues)) [IK34720]
CPD formation in the skin (% area stained) (Skh: hr1 hairless mice): inhibits CPD formation
percentage of MMP1 positive cells (MMP1; 500 μM, 3 hrs post irradiation): statistically significantly reduced
cells staining for MMP-1 (MMP1; 3 hrs post irradiation/treatment, Calcitriol 1 nM, IK34720 50, 250 or 500 μM): fewer stained cells
significant difference in TRS (TBA reactive substances) between Sham and UV irradiation (dermal fibroblasts): not seen
melanin content [1]: significantly decreased melanin content
